{
  "source": "patent US20240101564A1",
  "about": "“SALTS OF A PI3Kdelta INHIBITOR, CRYSTALLINE FORMS, METHODS OF PREPARATION, AND USES THEREFORE” (BeiGene Switzerland GmbH, priority 2021, published 2024)",
  "key": {"[1]": {"assay": "DVS (water sorption) test of fumarate crystal forms", "type": "physicochemical", "details": "for water uptake in DVS: humidity increased", "procedure": "DVS testing on fumarate Type A was performed starting from 25° C./70% RH.\nDVS test on Type D was started at 25° C./60% RH to avoid any unnecessary form change for the starting form. […] Thus, fumarate Type D was speculated to be stable lower than 60% RH.\nDVS testing on fumarate Type F was started at 25° C./80% RH to avoid any unnecessary form change for the starting form."}, "[2]": {"assay": "solid-state stability tests (HPLC and XRPD after storage for one week)", "type": "physicochemical", "details": "for HPLC (area %), One week / XRPD form after storage (form change) / difference of HPLC purity after storage: 25° C./60% RH and 40° C./75% RH, one week", "procedure": "Fumarate Type D and Type F were further evaluated by solid-state stability tests under 25° C./60% RH and 40° C./75% RH for one week.\nIn the experiments, about 15 mg of solids was added into an HPLC vial, which was then sealed with parafilm and pricked with 10 holes. Place the vial under corresponding condition and test the solids by HPLC and XRPD after one week."}, "[3]": {"assay": "pharmacokinetic properties of different salts in Sprague-Dawley rats after oral administration", "type": "in vivo", "details": "male SD rats, single oral 10 mg·kg^−1 (as free base), 0.5% MC, fasted", "procedure": "The oral dosing solution was prepared as follows: […] of a test compound was weighed and dispersed in 10 mL of 0.5% methyl cellulose (MC). The final concentration of the test compound is 1 mg·mL^−1 (Calculated by free freebase).\nMale Sprague-Dawley rats (also summarized in Table 27) were housed in solid bottom polypropylene cages with sterilized bedding and receive sterilized diet and sterilized water. The room was controlled and monitored for humidity (targeted mean range 40% to 70%) and temperature (targeted mean range 18° C. to 26° C.) with 10 to 20 air changes/hour. The light cycle was maintained at 12-h light and 12-h dark. Only animals that appeared to be healthy were selected for this study based on overall health, body weight, or other relevant information.\nThe male Sprague-Dawley rats were fasted overnight with free access to drinking water prior to treatment. On day 1, the animals were weighed and actual dose volume for each animal was calculated using the formula below: […]\nThree rats for each group were given a single oral dose of 10 mg·kg^−1. The dosing solutions were freshly prepared prior to dose administration. The actual body weights and actual volume injected were recorded accordingly. Four hours after dosing, the rats were allowed to intake food.\nBlood samples (˜150 μL) were collected at different times from the jugular vein catheter into EDTA-K2 coated tubes. Whole blood was processed by centrifugation at 3000 g for 10 min. Plasma samples were collected and kept at −80° C. freezer prior to analysis. The blood sampling time was recorded accordingly.\nThe dose samples of PO were diluted with MeOH:H2O (4:1, v/v) to achieve the concentration of 2 μg·mL^−1, respectively. Then, 2.5 μL of the diluted samples were added with 47.5 μL blank plasma, and then were handled as the plasma sample procedure. An aliquot of 10 μL of the mixture was injected into the LC-MS/MS system."}, "[4]": {"assay": "long-term stability, 3-month experiment", "type": "physicochemical"}, "PI3Kδ": {"biological_target": "PI3Kδ (Homo sapiens, UniProt O00329)", "sequence (O00329 whole entry, species assumed)": "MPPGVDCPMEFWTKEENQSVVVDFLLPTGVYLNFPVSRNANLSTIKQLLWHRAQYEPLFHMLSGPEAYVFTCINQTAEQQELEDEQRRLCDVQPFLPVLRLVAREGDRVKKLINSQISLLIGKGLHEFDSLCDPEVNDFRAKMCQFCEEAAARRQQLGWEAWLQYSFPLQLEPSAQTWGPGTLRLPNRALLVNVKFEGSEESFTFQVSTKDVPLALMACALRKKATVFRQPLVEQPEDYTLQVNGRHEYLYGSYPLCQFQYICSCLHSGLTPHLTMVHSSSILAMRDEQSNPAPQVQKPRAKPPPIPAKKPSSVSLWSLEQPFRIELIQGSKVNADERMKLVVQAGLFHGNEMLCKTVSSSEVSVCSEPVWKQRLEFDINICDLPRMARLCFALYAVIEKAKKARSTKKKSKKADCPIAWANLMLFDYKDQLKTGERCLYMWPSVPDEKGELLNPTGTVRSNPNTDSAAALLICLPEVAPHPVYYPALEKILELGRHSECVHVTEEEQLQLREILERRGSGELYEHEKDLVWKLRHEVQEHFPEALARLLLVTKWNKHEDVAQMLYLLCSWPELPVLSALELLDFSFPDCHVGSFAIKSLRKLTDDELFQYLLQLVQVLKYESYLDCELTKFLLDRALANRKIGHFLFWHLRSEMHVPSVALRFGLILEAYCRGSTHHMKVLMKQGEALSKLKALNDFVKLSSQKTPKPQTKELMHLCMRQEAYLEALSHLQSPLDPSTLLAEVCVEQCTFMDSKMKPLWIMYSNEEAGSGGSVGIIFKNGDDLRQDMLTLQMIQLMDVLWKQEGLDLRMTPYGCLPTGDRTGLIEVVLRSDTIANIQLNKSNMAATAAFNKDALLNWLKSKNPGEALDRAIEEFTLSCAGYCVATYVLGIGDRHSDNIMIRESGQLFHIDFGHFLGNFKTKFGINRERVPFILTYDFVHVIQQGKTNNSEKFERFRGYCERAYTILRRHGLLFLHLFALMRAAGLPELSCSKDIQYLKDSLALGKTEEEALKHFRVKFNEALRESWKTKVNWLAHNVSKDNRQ", "sequence (P27986 whole entry partner, species assumed)": "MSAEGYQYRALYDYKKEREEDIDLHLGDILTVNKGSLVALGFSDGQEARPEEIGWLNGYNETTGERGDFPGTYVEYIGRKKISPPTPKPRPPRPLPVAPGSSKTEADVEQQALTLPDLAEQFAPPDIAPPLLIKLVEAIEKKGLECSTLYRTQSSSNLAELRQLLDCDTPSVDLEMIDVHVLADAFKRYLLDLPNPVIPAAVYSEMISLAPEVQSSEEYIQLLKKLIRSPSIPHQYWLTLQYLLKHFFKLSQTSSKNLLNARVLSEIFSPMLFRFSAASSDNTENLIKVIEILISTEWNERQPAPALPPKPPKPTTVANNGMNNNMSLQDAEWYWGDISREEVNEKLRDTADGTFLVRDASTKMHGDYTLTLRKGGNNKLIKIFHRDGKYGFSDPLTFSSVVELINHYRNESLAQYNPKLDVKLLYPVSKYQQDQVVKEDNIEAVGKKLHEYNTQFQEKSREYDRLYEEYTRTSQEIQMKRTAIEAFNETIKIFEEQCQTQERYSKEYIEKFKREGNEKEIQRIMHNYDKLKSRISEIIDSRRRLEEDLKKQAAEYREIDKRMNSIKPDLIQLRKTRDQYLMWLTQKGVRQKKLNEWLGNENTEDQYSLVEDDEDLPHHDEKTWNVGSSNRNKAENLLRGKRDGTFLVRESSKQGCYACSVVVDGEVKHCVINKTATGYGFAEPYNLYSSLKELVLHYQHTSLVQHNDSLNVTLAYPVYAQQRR", "assay": "PI3Kδ inhibition in biochemical and cellular assays"}, "tumor xenografts": {"system": "tumor xenografts", "assay": "tumor xenografts engrafted subcutaneously or systemically in mice", "type": "in vivo", "details": "xenografts subcutaneous or systemic in mice"}, "cancer cell lines": {"system": "cancer cell lines", "assay": "cellular growth of cancer cell lines in vitro", "type": "cell-based", "details": "several cancer cell lines in vitro"}},
  "data": [
    {"smiles": "Cc1nc([C@@H](C)c2cc(Cl)c(F)c(C(=O)NCCN3CCN(C)CC3)c2OC(C)C)n2ccnc(N)c12.O=C(O)/C=C/C(=O)O", "note": "[Fumarate Type A]", "values": [
      {"measurement": "water uptake in DVS", "setting": "[1]; started from 25° C./70% RH", "result": "~21", "unit": "%"}
    ]},
    {"smiles": "Cc1nc([C@@H](C)c2cc(Cl)c(F)c(C(=O)NCCN3CCN(C)CC3)c2OC(C)C)n2ccnc(N)c12.O=C(O)/C=C/C(=O)O", "note": "[Fumarate Type F]", "values": [
      {"measurement": "HPLC (area %), One week", "setting": "[2]", "result": 99.9, "unit": "area %"},
      {"measurement": "XRPD form after storage (form change)", "setting": "[2]", "result": "Type F"},
      {"measurement": "difference of HPLC purity after storage", "setting": "[2]", "result": "no obvious difference of HPLC purity"},
      {"measurement": "XRPD form after storage (form change)", "setting": "[2]; listed as fumarate Type F", "result": "no form change"},
      {"measurement": "HPLC Area (%), RRT 1.00", "setting": "[2]; 25° C./60% RH for 1 week", "result": 99.88, "unit": "%"},
      {"measurement": "HPLC Area (%), RRT 1.06", "setting": "[2]; 25° C./60% RH for 1 week", "result": 0.05, "unit": "%"},
      {"measurement": "HPLC Area (%), RRT 1.08", "setting": "[2]; 25° C./60% RH for 1 week", "result": 0.02, "unit": "%"},
      {"measurement": "HPLC Area (%), RRT 1.13", "setting": "[2]; 25° C./60% RH for 1 week", "result": 0.05, "unit": "%"},
      {"measurement": "HPLC Area (%), RRT 1.00", "setting": "[2]; 40° C./75% RH for 1 week", "result": 99.91, "unit": "%"},
      {"measurement": "HPLC Area (%), RRT 1.08", "setting": "[2]; 40° C./75% RH for 1 week", "result": 0.03, "unit": "%"},
      {"measurement": "HPLC Area (%), RRT 1.13", "setting": "[2]; 40° C./75% RH for 1 week", "result": 0.06, "unit": "%"},
      {"measurement": "HPLC (area %), Initial", "setting": "[2]; Initial", "result": 99.9, "unit": "area %"},
      {"measurement": "HPLC Area (%), RRT 1.00", "setting": "[2]; Initial", "result": 99.95, "unit": "%"},
      {"measurement": "HPLC Area (%), RRT 1.13", "setting": "[2]; Initial", "result": 0.05, "unit": "%"},
      {"measurement": "water uptake in DVS", "setting": "[1]; started at 25° C./80% RH", "result": "~17", "unit": "%"}
    ]},
    {"smiles": "Cc1nc([C@@H](C)c2cc(Cl)c(F)c(C(=O)NCCN3CCN(C)CC3)c2OC(C)C)n2ccnc(N)c12.Cc1nc([C@@H](C)c2cc(Cl)c(F)c(C(=O)NCCN3CCN(C)CC3)c2OC(C)C)n2ccnc(N)c12.O=C(O)C(O)C(O)C(=O)O.O=C(O)C(O)C(O)C(=O)O.O=C(O)C(O)C(O)C(=O)O", "note": "[D-Tartarate (acid/base = 1.5:1)]", "values": [
      {"measurement": "AUC0-inf", "setting": "[3]", "result": 147.7, "unit": "ng·h/mL"},
      {"measurement": "AUC0-t", "setting": "[3]", "result": 54.9, "unit": "ng·h/mL"},
      {"measurement": "Cmax", "setting": "[3]", "result": 14.8, "unit": "ng/mL"},
      {"measurement": "F % (n = 3)", "setting": "[3]", "result": 3.4, "unit": "%"},
      {"measurement": "Kel", "setting": "[3]", "result": 0.06, "unit": "h⁻¹"},
      {"measurement": "t1/2", "setting": "[3]", "result": 12, "unit": "h"},
      {"measurement": "tmax", "setting": "[3]", "result": 2.7, "unit": "h"}
    ]},
    {"smiles": "Cc1nc([C@@H](C)c2cc(Cl)c(F)c(C(=O)NCCN3CCN(C)CC3)c2OC(C)C)n2ccnc(N)c12.O=C(O)/C=C/C(=O)O", "note": "[Fumarate Type D]", "values": [
      {"measurement": "HPLC (area %), One week", "setting": "[2]", "result": 99.9, "unit": "area %"},
      {"measurement": "XRPD form after storage (form change)", "setting": "[2]", "result": "Type D"},
      {"measurement": "difference of HPLC purity after storage", "setting": "[2]", "result": "no obvious difference of HPLC purity"},
      {"measurement": "XRPD form after storage (form change)", "setting": "[2]; listed as fumarate Type D", "result": "no form change"},
      {"measurement": "HPLC Area (%), RRT 1.00", "setting": "[2]; 25° C./60% RH for 1 week", "result": 99.92, "unit": "%"},
      {"measurement": "HPLC Area (%), RRT 1.08", "setting": "[2]; 25° C./60% RH for 1 week", "result": 0.02, "unit": "%"},
      {"measurement": "HPLC Area (%), RRT 1.13", "setting": "[2]; 25° C./60% RH for 1 week", "result": 0.06, "unit": "%"},
      {"measurement": "HPLC Area (%), RRT 1.00", "setting": "[2]; 40° C./75% RH for 1 week", "result": 99.90, "unit": "%"},
      {"measurement": "HPLC Area (%), RRT 1.08", "setting": "[2]; 40° C./75% RH for 1 week", "result": 0.03, "unit": "%"},
      {"measurement": "HPLC Area (%), RRT 1.13", "setting": "[2]; 40° C./75% RH for 1 week", "result": 0.07, "unit": "%"},
      {"measurement": "HPLC (area %), Initial", "setting": "[2]; Initial", "result": 99.9, "unit": "area %"},
      {"measurement": "HPLC Area (%), RRT 1.00", "setting": "[2]; Initial", "result": 99.92, "unit": "%"},
      {"measurement": "HPLC Area (%), RRT 1.08", "setting": "[2]; Initial", "result": 0.03, "unit": "%"},
      {"measurement": "HPLC Area (%), RRT 1.13", "setting": "[2]; Initial", "result": 0.05, "unit": "%"},
      {"measurement": "humidity below which the form is speculated to be stable", "setting": "[1]; from DVS, 25° C.", "result": "lower than 60 % RH"},
      {"measurement": "mass change in DVS", "setting": "[1]; started at 25° C./60% RH, 60% to 0% RH, then 0% to 70% RH", "result": "~1.6", "unit": "%"},
      {"measurement": "long-term stability", "setting": "[4]", "result": "excellent long-term stability"},
      {"measurement": "AUC0-inf", "setting": "[3]", "result": 356, "unit": "ng·h/mL"},
      {"measurement": "AUC0-t", "setting": "[3]", "result": 210, "unit": "ng·h/mL"},
      {"measurement": "Cmax", "setting": "[3]", "result": 48.3, "unit": "ng/mL"},
      {"measurement": "F % (n = 3)", "setting": "[3]", "result": 13.6, "unit": "%"},
      {"measurement": "Kel", "setting": "[3]", "result": 0.0687, "unit": "h⁻¹"},
      {"measurement": "t1/2", "setting": "[3]", "result": 11, "unit": "h"},
      {"measurement": "tmax", "setting": "[3]", "result": 2.45, "unit": "h"}
    ]},
    {"smiles": "Cc1nc([C@@H](C)c2cc(Cl)c(F)c(C(=O)NCCN3CCN(C)CC3)c2OC(C)C)n2ccnc(N)c12", "note": "[Compound A, (S)-3-(1-(8-amino-1-methylimidazo[1,5-a]pyrazin-3-yl)ethyl)-5-chloro-6-fluoro-2-isopropoxy-N-(2-(4-methylpiperazin-1-yl)ethyl)benzamide]", "values": [
      {"measurement": "inhibition of PI3Kδ", "setting": "PI3Kδ", "result": "potent and selective inhibitor"},
      {"measurement": "antitumor effects", "setting": "tumor xenografts", "result": "dose-dependent antitumor effects"},
      {"measurement": "inhibition of cellular growth", "setting": "cancer cell lines", "result": "inhibits cellular growth"}
    ]}
  ]
}
